Data on one compound can be found in patent US20110319484A1, “NEUROPROTECTIVE COMPOUNDS” (Parque Tecnologico de Ciencias de la Salud, priority 2009, published 2011).

Molecules are shown by their SMILES. Some results are limits rather than exact numbers.

In one assay the test system is SK-N-MC cells. Description: Inhibition of camptothecin-induced apoptosis by flow cytometry (propidium iodide, sub-G1). Conditions: Homo sapiens, camptothecin 50 μM, 6 h, at 4 μg/ml, read-out: maximum inhibition of apoptosis relating to apoptosis caused by camptothecin (flow cytometry). Type of assay: cell-based, human. The procedure: To that end, the inhibition caused by the NST0005 compound of apoptosis caused by the treatment with camptothecin (Campt) was analyzed. The SK-N-MC cells, not exceeding 15 passages, were seeded on 6-well plates treated for adherent cells with a cell concentration of 8×10^5 cells/well; 2 wells of the plate were seeded for each condition of the assay.
After 24 h of cell incubation at 37° C. and 5% CO2 the cell treatments were performed with 2 ml of total volume for the following conditions: (i), control (culture medium); (ii), camptothecin [50 μM]; (iii) camptothecin [50 μM] and Z-VAD-fmk [50 μM] (Alexis), as positive control of inhibition; and (iv), 50 μM camptothecin with NST0005 at different concentrations [4, 10, 40 and 100 μg/ml].
The cells were incubated (at 37° C. and 5% CO2) with these treatments for 6 h, after which time they were pooled together with their culture medium and centrifuged at 300×g for 5 minutes. The medium was removed, a washing was performed with phosphate buffered saline (PBS) and they were fixed for 2 minutes with 500 μl of 70% ethanol at −20° C. […] After this time, they were analyzed by flow cytometry, comparing the fluorescence of the propidium iodine against the amount of DNA. The percentage of apoptosis was measured on the sub-G1 region of each of the conditions. […]

Another assay has as its system cerebral cortex of mice. Put plainly: Neuroprotection in the cerebral cortex (lateral entorhinal and amygdaloid nuclei) of mice after kainate. Type of assay: in vivo, mice (FVB/NHan). Conditions: KA 25 mg/kg i.p., NST0005 50 mg/kg i.p. daily. The procedure: (§1) All the animals included during the experimental process were 12-week old males of the FVB/NHan strain. The experiments were carried out strictly following the Guidance on the Operation of Animals (Scientific Procedures, Act. 1986). The animals had their respective quarantine period and were treated with maximum precaution to minimize possible contaminations for inoculations and handling.
Sixteen animals were used in this assay and the treatments were all carried out by intraperitoneal (i.p.) route with a volume of 100 μl, according to the following regimens: • i) PBS+PBS+PBS regimen: 4 animals were initially treated with PBS with a daily dose for 2 days, on the second day the animals were inoculated with a new dose of PBS and for the next 7 days with a daily dose of PBS. • ii) PBS+KA+PBS regimen: 6 animals were initially treated with PBS with a daily dose for 2 days, on the second day the animals were inoculated with a dose of kainate at 25 mg/kg and for the next 7 days with a daily dose of PBS. • iii) NST0005+KA+NST0005 regimen: 6 animals were initially treated with NST0005 with a daily dose of 50 mg/kg for 2 days, on the second day the animals were inoculated with a dose of kainate at 25 mg/kg and for the next 7 days with a daily dose of NST0005 at 50 mg/kg.
Once the treatment period of 7 days ended, the animals were sacrificed and the brains were dissected. […]

The next assay deals with mice. Description: Antiepileptic effect against kainate administered to mice. Type of assay: in vivo, mice (FVB/NHan). Conditions: KA 25 mg/kg i.p.
Text: It is known that the administration of an excitotoxic substance to animals induces, in some cases, epileptic seizures and convulsions. As a result the inventors decided to investigate if the neuroprotective effect of (1S,3R,7S,8S,8aR)-1,2,3,7,8,8a-hexahydro-3,7-dimethyl-8-[2-[(2R,4R)-tetrahydro-4-hydroxy-6-oxo-2H-pyran-2-yl]ethyl-1-naphthalenyl 2,2-dimethylpropanoate (NST0005) was accompanied by an antiepileptic effect caused by an excitotoxic substance.
as §1
The animals were inoculated intraperitoneally with 25 mg/kg of kainate (KA) dissolved in PBS. Nine animals were pretreated at 24 and 0.5 hours before the inoculation with KA by means of intraperitoneal injection with PBS (PBS+KA administration regimen) and 9 were pretreated at 24 and 0.5 hours before the inoculation with KA by means of intraperitoneal injection with NST0005 at a dose of 50 mg/kg (NST0005+KA administration regimen). After the inoculation, the animals were individually housed in trays to monitor them. The maximum epilepsy level of the animals according to Racine's scale was recorded during the observation every ten minutes and for at least 120 minutes post-inoculation (m.p.i.).
Comparative studies of the epileptogenic phenomena between the treatment with PBS (PBS+KA) and with NST0005 (NST0005+KA) were subsequently conducted, the data of which are shown in Table 1.

[1] abbreviates: NST0005 50 mg/kg i.p. at 24 and 0.5 h before KA, n=9.

The term inhibition denotes the change of the read-out against control, counted positive when it falls. In the case of `C[C@H]1C=C2C=C[C@H](C)[C@H](CC[C@@H]3C[C@@H](O)CC(=O)O3)[C@H]2[C@@H](OC(=O)C(C)(C)C)C1` [NST0005], the inhibition at 4 µg/mL in the assay with SK-N-MC cells is 17%. Besides, in the assay with cerebral cortex of mice, the “neuritic dystrophy in the cerebral cortex (MAP2)” value is given as “significantly reduces neuronal damage by neuritic dystrophy” and the “reactive astrogliosis in the cerebral cortex (GFAP)” value was “significantly prevents reactive astrogliosis”. Besides, in the assay with mice (setting [1]), the “Animals with convulsions (%)” value was determined as 33.3%, the “Animals with status epilepticus (%)” value worked out at 22.2% and the “Mortality (%)” value was 11.1%. The “epilepsy level in Racine's scale reached” value in the assay with mice (NST0005 50 mg/kg i.p. pretreatment, at least 120 min observation) is given as below 3. Further, the “latency (time of onset of the first convulsions)” value in the assay on mice (NST0005 50 mg/kg i.p. pretreatment, mean±SEM) came out at 108.9 ± 5.9 min.
